Tests used:
Assay type in all cases: cell-based
[1] = target: T1, hCNT2 (SLC28A2) (Homo sapiens, UniProt O43868); experiment: Inhibition of [^3H]uridine uptake in yeast cells producing recombinant hCNT2
T1 construct: expressed in transfected cells; host or cells: Saccharomyces cerevisiae
T1 sequence (O43868 1-658): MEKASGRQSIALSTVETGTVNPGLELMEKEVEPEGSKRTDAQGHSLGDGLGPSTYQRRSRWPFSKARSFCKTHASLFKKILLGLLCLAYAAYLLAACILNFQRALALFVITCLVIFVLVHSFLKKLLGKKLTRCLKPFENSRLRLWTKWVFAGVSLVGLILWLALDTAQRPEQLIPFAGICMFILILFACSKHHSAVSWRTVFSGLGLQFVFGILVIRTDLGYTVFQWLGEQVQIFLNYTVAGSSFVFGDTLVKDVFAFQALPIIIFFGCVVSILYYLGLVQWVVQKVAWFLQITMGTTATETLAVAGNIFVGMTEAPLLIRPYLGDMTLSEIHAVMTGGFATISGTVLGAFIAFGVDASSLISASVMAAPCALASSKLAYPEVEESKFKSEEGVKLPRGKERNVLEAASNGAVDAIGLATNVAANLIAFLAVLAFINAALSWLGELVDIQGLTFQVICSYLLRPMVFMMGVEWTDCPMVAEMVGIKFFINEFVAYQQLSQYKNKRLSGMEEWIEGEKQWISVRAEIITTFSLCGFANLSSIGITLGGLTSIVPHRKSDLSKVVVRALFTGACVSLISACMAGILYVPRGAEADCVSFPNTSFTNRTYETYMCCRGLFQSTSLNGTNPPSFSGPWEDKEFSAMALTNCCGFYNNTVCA
Procedure: (§1) The interaction of 2-nitroimidazole sugars with nucleoside transporters was determined by ability of the 2-nitroimidazole sugars to inhibit [^3H]uridine uptake in yeast cells producing recombinant human nucleoside transporters and results expressed as IC50 values.
(§2) Saccharomyces cerevisiae yeast was separately transformed with plasmids (pYPhENT1, pYPhENT2, pYPhCNT1, pYPhCNT2, or pYPhCNT3) encoding hNTs (hENT1, hENT2, hCNT1, hCNT2, or hCNT3, respectively) as described elsewhere. Uptake of 1 µmol/L [^3H]uridine (Moravek Biochemicals) into yeast was measured as previously described using a semi-automated cell harvester (Micro96 HARVESTER; Skatron Instruments, Tranby, Norway). Yeast was incubated at room temperature with 1 µmol/L [^3H]uridine in yeast growth media (pH 7.4) in the presence or absence (uninhibited controls) of graded concentrations (0–3 mM) of test compounds. The following compounds were used for transporter experiments: FAZA, β-FAZA, α-FAZDR, β-FAZDR. Uridine self-inhibition was used to determine maximum inhibition of mediated transport. Concentration–effect curves were subjected to nonlinear regression analysis using Prism software (version 4.03; GraphPad Software Inc.) to obtain the concentration of test compound that inhibited uridine uptake by 50%, relative to that of untreated cells (IC50 values). Each IC50 value determination was conducted with nine concentrations and four replicates per concentration and experiments were repeated two to three times.

[2] = target: T2, hENT1 (SLC29A1) (Homo sapiens, UniProt Q99808); experiment: Inhibition of [^3H]uridine uptake in yeast cells producing recombinant hENT1; details: inhibition of 1 µmol/L [^3H]uridine transport, yeast, 0–3 mM test compound, mean ± SE, n = 2–3; NI = no interaction
T2 construct: expressed in transfected cells; host or cells: Saccharomyces cerevisiae
T2 sequence (Q99808 1-456): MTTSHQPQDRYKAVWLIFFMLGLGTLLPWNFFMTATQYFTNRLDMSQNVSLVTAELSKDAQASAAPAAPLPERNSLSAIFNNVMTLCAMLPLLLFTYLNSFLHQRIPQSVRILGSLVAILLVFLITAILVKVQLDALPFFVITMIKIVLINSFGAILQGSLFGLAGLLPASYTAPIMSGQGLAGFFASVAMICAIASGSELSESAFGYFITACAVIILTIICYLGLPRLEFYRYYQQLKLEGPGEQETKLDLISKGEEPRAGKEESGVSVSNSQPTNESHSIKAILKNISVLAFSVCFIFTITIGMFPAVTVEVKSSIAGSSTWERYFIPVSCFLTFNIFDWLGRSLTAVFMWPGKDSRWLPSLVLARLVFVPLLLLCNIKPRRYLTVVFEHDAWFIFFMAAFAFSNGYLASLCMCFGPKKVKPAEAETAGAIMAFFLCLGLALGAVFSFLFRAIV
Procedure: as §1, §2

[3] = target: T3, hCNT1 (SLC28A1) (Homo sapiens, UniProt O00337); experiment: Inhibition of [^3H]uridine uptake in yeast cells producing recombinant hCNT1
T3 construct: expressed in transfected cells; host or cells: Saccharomyces cerevisiae
T3 sequence (O00337 1-649): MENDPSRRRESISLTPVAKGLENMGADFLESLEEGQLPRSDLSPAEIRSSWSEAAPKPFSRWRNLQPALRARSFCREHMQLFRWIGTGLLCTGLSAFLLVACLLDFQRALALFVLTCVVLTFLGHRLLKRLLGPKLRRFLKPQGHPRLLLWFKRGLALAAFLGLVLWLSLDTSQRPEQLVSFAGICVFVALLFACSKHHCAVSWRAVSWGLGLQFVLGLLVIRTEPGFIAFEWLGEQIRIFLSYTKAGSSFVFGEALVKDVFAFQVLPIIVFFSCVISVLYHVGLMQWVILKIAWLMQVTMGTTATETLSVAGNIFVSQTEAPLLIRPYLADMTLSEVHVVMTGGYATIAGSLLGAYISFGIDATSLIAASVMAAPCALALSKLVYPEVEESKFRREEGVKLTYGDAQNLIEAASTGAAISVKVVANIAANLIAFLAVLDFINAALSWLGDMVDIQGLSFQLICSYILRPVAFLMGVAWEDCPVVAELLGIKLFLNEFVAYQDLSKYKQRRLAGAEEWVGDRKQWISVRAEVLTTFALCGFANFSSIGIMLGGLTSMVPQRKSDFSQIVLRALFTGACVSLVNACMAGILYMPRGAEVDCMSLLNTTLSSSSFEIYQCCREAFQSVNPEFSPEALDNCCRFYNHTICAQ
Procedure: as §1, §2

[4] = target: T4, hCNT3 (SLC28A3) (Homo sapiens, UniProt Q9HAS3); experiment: Inhibition of [^3H]uridine uptake in yeast cells producing recombinant hCNT3
T4 construct: expressed in transfected cells; host or cells: Saccharomyces cerevisiae
T4 sequence (Q9HAS3 1-691): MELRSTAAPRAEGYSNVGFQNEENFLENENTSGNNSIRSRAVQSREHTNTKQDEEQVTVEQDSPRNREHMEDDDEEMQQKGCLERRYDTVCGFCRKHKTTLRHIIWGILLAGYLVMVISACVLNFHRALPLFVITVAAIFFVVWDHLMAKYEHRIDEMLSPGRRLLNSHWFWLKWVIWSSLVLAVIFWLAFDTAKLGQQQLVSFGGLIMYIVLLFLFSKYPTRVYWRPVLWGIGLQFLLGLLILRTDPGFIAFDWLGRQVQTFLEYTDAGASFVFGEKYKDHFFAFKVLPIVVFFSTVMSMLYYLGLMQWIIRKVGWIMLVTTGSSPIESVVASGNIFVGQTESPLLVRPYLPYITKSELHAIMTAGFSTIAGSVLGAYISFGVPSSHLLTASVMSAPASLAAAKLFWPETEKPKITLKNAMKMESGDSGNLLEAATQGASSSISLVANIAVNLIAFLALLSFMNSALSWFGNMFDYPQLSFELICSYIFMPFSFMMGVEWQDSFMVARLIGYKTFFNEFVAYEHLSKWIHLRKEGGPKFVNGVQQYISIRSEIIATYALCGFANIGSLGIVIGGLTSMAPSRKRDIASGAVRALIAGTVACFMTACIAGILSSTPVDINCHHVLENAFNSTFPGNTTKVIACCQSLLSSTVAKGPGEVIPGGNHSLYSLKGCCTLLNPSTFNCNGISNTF
Procedure: as §1, §2

[5] = target: T5, hENT2 (SLC29A2) (Homo sapiens, UniProt Q14542); experiment: Inhibition of [^3H]uridine uptake in yeast cells producing recombinant hENT2; details: inhibition of 1 µmol/L [^3H]uridine transport, yeast, 0–3 mM test compound, mean ± SE, n = 2–3; NI = no interaction
T5 construct: expressed in transfected cells; host or cells: Saccharomyces cerevisiae
T5 sequence (Q14542 1-456): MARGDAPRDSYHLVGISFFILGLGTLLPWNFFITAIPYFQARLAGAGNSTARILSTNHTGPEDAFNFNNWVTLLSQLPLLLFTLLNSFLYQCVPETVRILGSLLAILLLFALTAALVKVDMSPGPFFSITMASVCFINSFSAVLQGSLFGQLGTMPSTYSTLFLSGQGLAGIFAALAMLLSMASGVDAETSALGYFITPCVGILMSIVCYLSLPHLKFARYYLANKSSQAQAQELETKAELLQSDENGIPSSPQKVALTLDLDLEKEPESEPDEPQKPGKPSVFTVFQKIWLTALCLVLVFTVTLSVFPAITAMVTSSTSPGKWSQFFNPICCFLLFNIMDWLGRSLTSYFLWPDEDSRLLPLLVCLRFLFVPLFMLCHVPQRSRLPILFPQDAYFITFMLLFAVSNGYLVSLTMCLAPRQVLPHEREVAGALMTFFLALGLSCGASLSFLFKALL
Procedure: as §1, §2

## O=[N+]([O-])c1nccn1[C@H]1O[C@H](CF)[C@@H](O)[C@@H]1O [FAZA, 1-(5′-deoxy-5′-fluoro-α-D-arabinofuranosyl)-2-nitroimidazole]
[1]
  IC50: 640 ± 10 µM
[2]
  IC50: > 3000 µM
  IC50 hENT1 (SLC29A1): no interaction
[3]
  IC50: 290 ± 44 µM
[4]
  IC50: 1380 ± 100 µM
[5]
  IC50: > 3000 µM
  IC50 hENT2 (SLC29A2): no interaction

— article PMC6469291, “2-Nitroimidazole-Furanoside Derivatives for Hypoxia Imaging—Investigation of Nucleoside Transporter Interaction, ^18F-Labeling and Preclinical PET Imaging” (Pharmaceuticals, 2019)
